{"source": "patent US20240270713A1", "about": "“NOVEL COMPOUND EXHIBITING THERAPEUTIC EFFECT ON INFLAMMATORY DISEASE AS P38 MAP KINASE INHIBITOR” (PRAZERTHERAPEUTICS INC., priority 2021, published 2024)", "format_in_all_cases": "cell-based", "key": {"IL-1β mRNA [1]": {"system": "IL-1β mRNA", "assay": "Cytokine mRNA expression inhibitory ability, IL-1β, LPS-treated Raw264.7 cells", "details": "1 μM compound 24 hours, then 100 ng/ml LPS 24 hours", "procedure": "(§1) Evaluation of cytokine mRNA expression inhibitory ability according to inflammatory response\n(§2) In order to identify inhibition of p-p38 MAPK, inhibition of p38 MAPK was identified after treating each compound to Raw264.7 cells obtained by converting macrophages that induces inflammation according to p-p38 MAPK activity cancerous cells. Briefly, Raw264.7 cells were cultured in Dulbecco's modified Eagle Medium supplemented with 10% fetal bovine serum and penicillin/streptomycin (100 U/ml). Raw264.7 cells were treated with 1 μM of Compounds 1 to 5 according to the present disclosure in a culture dish respectively and cultured for 24 hours in a CO2 incubator, and then treated with 100 ng/ml of LPS, followed by additional culture for 24 hours in a CO2 incubator.\n(§3) After cell culture was terminated according to the experimental conditions, cells were washed with cold phosphate buffered saline (PBS). The cells were then collected and centrifuged at 1200 rpm for 3 minutes. RNA was extracted according to the method provided in the Hybrid-R total RNA purification kit (GeneAll, 305-101). After measuring the concentration and purity of RNA using Nanodrop, cDNA was synthesized according to the method provided in TOPscript RT DryMIX (Enzynomics, RT200). After a reaction at 95° C. for 3 minutes using SYBR Green Mix along with primer, cDNA was subjected to repetitive reactions 30 times at 95° C. for 10 seconds, at 55° C. for 10 seconds, and at 72° C. for 30 seconds to determine the RNA expression level. The results are shown in Tables 5 and 6 below and FIGS. 1 and 2."}, "TNFα mRNA [2]": {"system": "TNFα mRNA", "assay": "Cytokine mRNA expression inhibitory ability, TNFα, LPS-treated Raw264.7 cells", "details": "1 μM compound 24 hours, then 100 ng/ml LPS 24 hours", "procedure": "as §1, §2, §3"}, "p-p38 MAPK": {"biological_target": "p-p38 MAPK (Homo sapiens (Human), UniProt Q16539)", "sequence (Q16539 whole entry)": "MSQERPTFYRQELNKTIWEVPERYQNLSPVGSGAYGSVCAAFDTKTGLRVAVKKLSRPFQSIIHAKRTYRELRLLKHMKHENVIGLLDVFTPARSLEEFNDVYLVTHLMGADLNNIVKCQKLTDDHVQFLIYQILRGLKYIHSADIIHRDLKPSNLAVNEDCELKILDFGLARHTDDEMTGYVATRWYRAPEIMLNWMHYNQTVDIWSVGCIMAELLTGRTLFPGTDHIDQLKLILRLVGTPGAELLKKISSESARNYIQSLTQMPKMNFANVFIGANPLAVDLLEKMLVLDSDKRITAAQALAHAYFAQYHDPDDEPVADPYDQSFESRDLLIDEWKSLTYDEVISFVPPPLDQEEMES", "assay": "p38 MAPK protein inhibitory ability in brain-derived cells (p-p38 immunoblot, SH-SY5Y)", "procedure": "Evaluation of p38 MAPK protein inhibitory ability in brain-derived cells\nIn order to identify inhibition of p-p38 MAPK in brain cells, the inhibition of p38 MAPK was identified by inducing inflammation after treating each compound to SH-SYSY cells obtained by converting human neurons into cancerous cells. In short, SH-SY5Y cells were cultured in Minimum essential medium/Eagle's balanced salts supplemented with 10% fetal bovine serum and penicillin/streptomycin (100 U/ml). SH-SY5Y cells were treated with 1 μM of Compounds 4 and 6 according to the present disclosure in a culture dish respectively and cultured for 24 hours in a CO2 incubator, and then treated with 1000 ng/ml of LPS, followed by additional culture for 6 hours in a CO2 incubator.\nAfter cell culture was terminated according to the experimental conditions, cells were washed with cold phosphate buffered saline (PBS). The cells were then collected and centrifuged at 1200 rpm for 3 minutes. The cells in the sediment were lysed with 2X sample buffer (1M Tris-HCl pH 6.8, 50% glycerol, 10% SDS, 2-mercaptoethanol, 1% bromophenol blue) and boiled at 100° C. for 10 minutes. The prepared protein samples were subjected to sodium dodecyl sulfate poly acrylamide gel electrophoresis and transferred to PVDF membrane (Millipore). For a specific binding reaction between the protein in the PVDF membrane and antibody, blocking was performed in a 5% bovine serum albumin (BSA, RMbio) solution. Subsequently, the BSA solution was discarded, and the membrane was washed with PBS-T (0.5% Tween 20 in PBS). The binding reaction of the protein in the membrane and antibody was performed overnight at 4° C. and washed again with PBS-T. Finally, a secondary antibody (Cell signaling Technology) conjugated with horse radish peroxidase (HRP) was diluted in PBS-T and reacted at room temperature for 2 hours. Luminata Forte HRP substrate (Millipore) was used to determine the amount of protein in the membrane, the results of which are shown in Table 8 below."}, "IL-1β mRNA [3]": {"system": "IL-1β mRNA", "assay": "Cytokine mRNA expression inhibitory ability, IL-1β, LPS-treated BV2 cells", "details": "1 μM compound 24 hours, then 1000 ng/ml LPS 24 hours", "procedure": "(§4) Evaluation of cytokine mRNA expression inhibitory ability by inflammatory response\n(§5) In order to identify inhibition of p-p38 MAPK, the inhibition of p38 MAPK was identified by treating each compound to BV2 cells obtained by converting microglia that induces inflammation according to p-p38 MAPK activity in the brain into cancerous cells. Briefly, BV2 cells were cultured in Dulbecco's modified Eagle Medium supplemented with 10% fetal bovine serum and penicillin/streptomycin (100 U/ml). BV2 cells were treated with 1 μM of Compounds 4 to 6 according to the present disclosure in a culture dish respectively and cultured for 24 hours in a CO2 incubator, and then treated with 1000 ng/ml of LPS, followed by additional culture for 24 hours in a CO2 incubator.\n(§6) After the cell culture was completed according to the experimental conditions, washing was performed with cold phosphate buffered saline (PBS). The cells were then collected and centrifuged at 1200 rpm for 3 minutes. RNA was extracted according to the method provided in the Hybrid-R total RNA purification kit (GeneAllR), 305-101). After measuring the concentration and purity of RNA using Nanodrop, cDNA was synthesized according to the method provided in TOPscript RT DryMIX (Enzynomics, RT200). […]"}, "TNFα mRNA [4]": {"system": "TNFα mRNA", "assay": "Cytokine mRNA expression inhibitory ability, TNFα, LPS-treated BV2 cells", "details": "1 μM compound 24 hours, then 1000 ng/ml LPS 24 hours", "procedure": "as §4, §5, §6"}, "IL-6 mRNA": {"system": "IL-6 mRNA", "assay": "Cytokine mRNA expression inhibitory ability, IL-6, LPS-treated BV2 cells", "details": "1 μM compound 24 hours, then 1000 ng/ml LPS 24 hours", "procedure": "as §4, §5, §6"}}, "data": [{"smiles": "Cc1c(F)cc(C(=O)NC2CC2)cc1-c1ccc(C(=O)c2c[nH]c3ccccc23)cn1", "note": "[Compound 4, 3-(5-(1H-indole-3-carbonyl)pyridin-2-yl)-N-cyclopropyl-5-fluoro-4-methylbenzamide]", "values": [{"measurement": "IL-1β mRNA inhibition", "setting": "IL-1β mRNA [1]", "result": 38.2, "unit": "%"}, {"measurement": "TNFα mRNA inhibition", "setting": "TNFα mRNA [2]", "result": 51.5, "unit": "%"}, {"measurement": "p38 phosphorylation in cells derived from human (result in words)", "setting": "p-p38 MAPK; 1 μM", "result": "effectively inhibited p38 phosphorylation"}, {"measurement": "inhibition at 1 µM", "setting": "p-p38 MAPK; 1 μM compound 24 hours, then 1000 ng/ml LPS 6 hours", "result": 74.6, "unit": "%"}, {"measurement": "IL-1β mRNA inhibition", "setting": "IL-1β mRNA [3]", "result": 68.5, "unit": "%"}, {"measurement": "TNFα mRNA inhibition", "setting": "TNFα mRNA [4]", "result": 24.5, "unit": "%"}, {"measurement": "IL-6 mRNA inhibition", "setting": "IL-6 mRNA", "result": 52.8, "unit": "%"}]}]}
